Measurements: US10959427B2, “Attractant of ladybugs, aphid's natural enemy” (Zhejiang University, priority 2018, dated 2021)

Tested on: Coccinella septempunctata
Assay: Wind tunnel experiment: behavioral responses of ladybugs to the attractant
Assay type: in vivo
Conditions: for Proportion of Knocking Filter Paper, Female Proportion / Proportion of Passing Through ½ of Wind Tunnel, Female Proportion / Proportion of Take Off, Female Proportion: female ladybugs; for Proportion of Knocking Filter Paper, Female Proportion / Proportion of Knocking Filter Paper, Male Proportion: number of insects knocking filter paper/total number of insects; for Proportion of Knocking Filter Paper, Female Proportion / Proportion of Passing Through ½ of Wind Tunnel, Female Proportion / Proportion of Take Off, Female Proportion / Proportion of Knocking Filter Paper, Male Proportion / Proportion of Passing Through ½ of Wind Tunnel, Male Proportion / Proportion of Take Off, Male Proportion: 30 min, 28° C., wind speed 0.3 m/s; for Proportion of Passing Through ½ of Wind Tunnel, Female Proportion / Proportion of Passing Through ½ of Wind Tunnel, Male Proportion: number of insects passing through ½ of wind tunnel/total number of insects; for Proportion of Take Off, Female Proportion / Proportion of Take Off, Male Proportion: number of take-off insects/total number of insects; for Proportion of Knocking Filter Paper, Male Proportion / Proportion of Passing Through ½ of Wind Tunnel, Male Proportion / Proportion of Take Off, Male Proportion: male ladybugs; for Attraction of ladybugs in the wind tunnel, result in words: summary of wind tunnel results
Description: (§1) Wind tunnel experiments were performed using a wind tunnel device to determine the behavioral responses of ladybugs to the attractant. The wind tunnel device is 90 cm long, 35 cm wide and 35 cm high. The desired ladybugs were put into a glass tube 30 minutes before the test, and both the ends of the glass tube were sealed with absorbent cotton to adapt the ladybugs to the environment in the wind tunnel. The filter paper-loaded compound was placed on the upper air outlet, and the wind speed in the wind tunnel was 0.3 m/s. The whole process of bioassay was carried out at 28° C. The glass tube was placed at the end of the lower air outlet of the wind tunnel. Timing started and lasted for 30 min. The numbers of take-offs, directional flights, and proximity to attractant sources were recorded and their relative proportions were calculated. The experimental method was referred to the wind tunnel experiment of Binyameen M et al (Journal of Chemical Ecology, 2013, 39(10):1273-1283).
The behavioral responses of ladybugs to the attractants in Comparative Examples 1-5 were measured by using a wind tunnel device (same conditions as in Example 1).
as §1, with “to the attractants. The wind” for “to the attractant. The wind”, “glass tube with the ladybugs was placed” for “glass tube was placed”, “min. The proportions of take-offs,” for “min. The numbers of take-offs,”, “sources were recorded.” for “sources were recorded and their relative proportions were calculated. The experimental method was referred to the wind tunnel experiment of Binyameen M et al (Journal of Chemical Ecology, 2013, 39(10):1273-1283).”
Wind tunnel experiments were performed using a wind tunnel device to determine the behavioral responses of ladybugs to the attractants of Example 3 and Comparative Examples 6-10.
Wind tunnel experiments were performed using a wind tunnel device to determine the behavioral responses of ladybugs to the attractants of Example 4 and Comparative Examples11-20.
Note: Coccinella septempunctata were used in the above wind tunnel experiments; when the Rodolia limbata, Harmonia axyridis, Propylaea japonica and Chilocorus rubidus hope were taken as the experiment objects, the results (trend) were basically the same as that of Coccinella septempunctata.

SMILES	Proportion of Knocking Filter Paper, Female Proportion [%]	Proportion of Passing Through ½ of Wind Tunnel, Female Proportion [%]	Proportion of Take Off, Female Proportion [%]	Proportion of Knocking Filter Paper, Male Proportion [%]	Proportion of Passing Through ½ of Wind Tunnel, Male Proportion [%]	Proportion of Take Off, Male Proportion	Attraction of ladybugs in the wind tunnel, result in words
C=CC1(C)CCC(C(=C)C)CC1C(=C)C (stereo not shown) [Comparative Example 16, 1-vinyl-1-methyl-2,4-di (propyl-1-ene-2-yl) cyclohexane]	0	13.3	0	11.7	73.3	21.7%^	better effect on attracting male ladybugs but worse than Example 4
CCC/C=C/C(=O)O [Comparative Example 18, trans-2-hexenoic acid]	10	53.3	11.7	8.3	46.7	20%	poor attraction to female and male ladybugs
CC(C)CC=O [Comparative Example 19, isovaleraldehyde]	11.7	58.3	13.3	15	56.7	10%	poor attraction to female and male ladybugs
CC(C)=CCC/C(C)=C/CC/C(C)=C/CC/C=C(\C)CC/C=C(\C)CCC=C(C)C [Comparative Example 20, squalene]	13.3	61.7	20	6.7	66.7	26.8%^	number of insects knocking filter paper was significant less that the other examples
